These results are taken from patent publication US7592009B2, “Polypeptide ligands for targeting cartilage and methods of use thereof” (Ecole Polytechnique Federale de Lausanne (EPFL), priority 2006, dated 2009).

One test has as its system articular cartilage. Description: Competitive binding of free polypeptide or nanoparticles against phage clone C1-3 on articular cartilage. Also on record: species or system bovine. To be noted: for decrease of phage titers versus control without polypeptide: 10 μM polypeptide, FIG. 3. The procedure: Cartilage grafts were harvested with 8 and 4 mm biopsy cutters (two-sided surface 1 cm^2 and 0.25 cm^2). A slice with the intact articular surface was removed to expose the phages only to the cartilage matrix below the surface. Affinity selection was preformed in polystyrene 48-well plates, which were blocked for nonspecific adhesion with a blocking solution containing 1% BSA for 2 hours prior to screening. A total of 5 screening rounds was carried out. In the first round 10^13 and in subsequent rounds 10^12 phage virions per ml were exposed to the cartilage graft, washed with PBS/Tween 20 and eluted at low pH. While the first round was supposed to give a high yield at low stringency, subsequent rounds were carried out with increasing stringency to select stronger binders. Conditions were increased from 4 hours of binding at RT and washing with PBS/0.1% Tween to 30 minutes binding at 37° C. with 220 RPM, washing with PBS/1% Tween 20 and the cartilage surface decreased from 1 cm^2 to 0.25 cm^2 in round five. Eluted phage was amplified overnight in E. coli strain TG1 in 2×YT medium and purified by two times PEG/NaCl (2M, 25%) precipitation. In the first round of screening, negative screens against the intact articular surface as well as synovial fluid (50% diluted in PBS to lower viscosity) were carried out in order to eliminate phages binding to these targets. Quantitative titer counts were obtained by spot titering of 15 μl of phage/bacterial culture onto LB-agar/tetracyclin plates and are given in transducing units(TU)/ml. The polypeptide sequences of affinity selected phage specific to the articular cartilage matrix was determined by DNA sequencing (Microsynth AG, Balgach, Switzerland) using the sequencing primer 5′-CAT GTA CCG TAA CAC TGA G (SEQ ID NO:5). Binding specificity was determined by exposing selected phage clones (10^8 TU/ml) to articular cartilage (0.25 cm^2) with and without synovial fluid, to synovial membrane (3×4 mm, 0.24 cm^2) and to polystyrene after blocking. […] The phage clones were identified by DNA sequencing and the corresponding titer counts calculated. For comepetetive binding against free polypeptide or nanoparticles and to obtain a dose-response curve, 10^8 TU/ml of phage and its free polypeptide in different concentrations or nanoparticles were mixed, exposed to articular cartilage and titer counts determined. […]
Based on affinity selection and the binding assays reported herein, the 6-mer polypeptide insert WYRGRL (SEQ ID NO:1) of clone C1-3 as well as its scrambled mismatch YRLGRW (SEQ ID NO:6) were synthesized on solid resin using standard Fmoc chemistry. […] A dose-response curve was determined by serial dilutions of the polypeptide ranging from 50 nM to 10 μM and mixing them with 10^8 TU/ml of phage. […]

For another test, the target named is T1, MMP-2 (Homo sapiens, UniProt P08253).
T1 sequence (P08253 110-660): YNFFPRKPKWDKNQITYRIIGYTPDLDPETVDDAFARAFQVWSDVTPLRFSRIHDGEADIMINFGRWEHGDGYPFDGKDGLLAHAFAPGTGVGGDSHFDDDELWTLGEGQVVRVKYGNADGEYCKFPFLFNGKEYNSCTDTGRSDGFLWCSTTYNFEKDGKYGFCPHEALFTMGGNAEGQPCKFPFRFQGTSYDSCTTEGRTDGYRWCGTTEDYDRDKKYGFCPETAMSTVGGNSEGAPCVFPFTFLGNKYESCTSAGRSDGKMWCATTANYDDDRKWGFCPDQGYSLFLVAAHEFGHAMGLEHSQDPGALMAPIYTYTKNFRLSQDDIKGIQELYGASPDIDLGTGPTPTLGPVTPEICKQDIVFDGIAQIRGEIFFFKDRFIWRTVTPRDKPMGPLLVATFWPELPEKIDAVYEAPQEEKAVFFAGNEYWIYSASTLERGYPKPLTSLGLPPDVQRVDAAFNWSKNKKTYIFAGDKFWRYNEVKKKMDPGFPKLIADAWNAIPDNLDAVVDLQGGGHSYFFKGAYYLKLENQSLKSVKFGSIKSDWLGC
Kind of test: MMP-2 zymography. The format is biochemical.

Where no end group is shown, it is not given here.

For “WYRGRLC [synthetic polypeptide: insert WYRGRL of clone C1-3 with a cysteine added to the C-terminus]”, the “decrease of phage titers versus control without polypeptide” value with articular cartilage is approximately 100 fold. The IC50 on articular cartilage (polypeptide 50 nM to 10 μM mixed with 10^8 TU/ml phage C1-3, estimated from curve in FIG. 2, read-out: IC50, inhibition of cartilage binding of phage C1-3) is approximately 200 nM. Moreover, the “decrease of titer counts of recovered phage over the dose-response curve” value in the test with articular cartilage (polypeptide increased from 50 nM to 10 μM, FIG. 2) is given as “two orders of magnitude”.
Regarding “YRLGRWC (Ac-YRLGRWC) [scrambled mismatch polypeptide of WYRGRL with C-terminal cysteine, reference compound]”, in the test on articular cartilage, the “decrease of phage titers versus control without polypeptide” value is reported as “did not result in a significant decrease in phage titer”.

B1: trTIMP-3: fusion protein of N-TIMP-3 (Cys24 to Asn 143) containing WYRGRL at the C-terminus (protein)
chain: CTCSPSHPQDAFCNSDIVIRAKVVGKKLVKEGPFGTLVYTIKQMKMYRGFSKMPHVQYIHTEASESLCGLKLEVNKYQYLLTGRVYEGKMYTGLCNFVERWDHLTLSQRKGLNYRYHLGCGGGWYRGRL
As for B1, the “inhibition of MMP-2 activity” value in the test with MMP-2 (equimolar amount of trTIMP-3) was “completely inhibits”. Besides, the “activity of the purified protein” value with MMP-2 (inferred from MMP-2 zymography at equimolar amount) is given as approximately 100%.
